Source: patent publication US20250388896A1, “COMPOSITION AND METHODS FOR TRANSGENE INSERTION” (ARTISAN DEVELOPMENT LABS, INC, priority 2022, published 2025)

Assays:
Format in all cases: cell-based, human
[1] = test system: eight different loci (PDCD1, TIM3, LAG3, TIGIT, CTLA4, PTPN6, PTPN11, CD247); experiment: gNA screen and validation: INDEL and frameshift frequency at eight loci by amplicon sequencing; details: Jurkat cells; gNAs adjacent to all YTTN PAM variants
Experimental: (§1) Ribonucleoprotein complexes (RNPs) were generated by incubating respective guide nucleic acids (gNAs) with MAD7 in the molar ratio of 3:2 gNA:MAD7 for 15 minutes at room temperature immediately before transfection. For Jurkat experiments, the RNP complexes were generated by mixing the respective gNA (150 pmol), MAD7 (100 pmol), and nuclease-free water, unless otherwise stated.
(§2) Lonza 4D Nucleofector with Shuttle unit (V4SC-2960 Nucleocuvette Strips) was used for transfection, following the manufacturer's instructions. […]
(§3) Extracted genomic DNA was quantified using the NanoDrop (ThermoFisher Scientific). […] The DNA was eluted from the beads with nuclease-free water and the size of the purified amplicons analyzed on a 2% agarose E-gel using the E-gel electrophoresis system (ThermoFisher Scientific). In the second PCR, unique pairs of Illumina-compatible indexes (Nextera XT Index Kit v2) were added to the amplicons using the KAPA HiFi HotStart Ready Mix (Roche). […] Sizes of the purified DNA fragments were validated on a 2% agarose gel using the E-gel electrophoresis system (ThermoFisher Scientific), quantified using Qubit dsDNA HS Assay Kit (Thermo Fisher) and then pooled in equimolar concentrations. […] The final library was sequenced on Illumina MiSeq System using the MiSeq Reagent Kit v.2 (300 cycles, 2×250 bp, paired-end reads). […]

[2] = test system: predicted off-target sites; experiment: INDEL frequency at predicted off-target sites by targeted deep sequencing; details: Jurkat cells
Source text: Extracted genomic DNA was quantified using the NanoDrop (ThermoFisher Scientific). […] Amplification products were purified with Agencourt AMPure XP beads (Ramcon), using the sample to beads ratio of 1:1.8. The DNA was eluted from the beads with nuclease-free water and the size of the purified amplicons analyzed on a 2% agarose E-gel using the E-gel electrophoresis system (ThermoFisher Scientific). In the second PCR, unique pairs of Illumina-compatible indexes (Nextera XT Index Kit v2) were added to the amplicons using the KAPA HiFi HotStart Ready Mix (Roche). The amplified products were purified with Agencourt AMPure XP beads (Ramcon), using the sample to bead ratio of 1:1.8. […] Sizes of the purified DNA fragments were validated on a 2% agarose gel using the E-gel electrophoresis system (ThermoFisher Scientific), quantified using Qubit dsDNA HS Assay Kit (Thermo Fisher) and then pooled in equimolar concentrations. […] The final library was sequenced on Illumina MiSeq System using the MiSeq Reagent Kit v.2 (300 cycles, 2×250 bp, paired-end reads). […]
Initial quality assessment of the obtained reads was performed with FastQC36. […] For the ORF disruption analysis, CRISPRessoBatch command with the parameters --cleavage_offset 1 -coding_seq <EXON_SEQ> --quantification_window_size 0 --quantification_window_center 1 --expand_ambiguous_alignments was used. […]

PDCD1 protein = experiment: PDCD1 knock-out: surface expression of PDCD1 protein by flow cytometry; details: Jurkat cells
Experimental: Flow cytometric assessments were carried out on a CytoFLEX S instrument (Beckmen Coulter) using a 96-well plate format. Measurements of cell viability, PDCD1 expression, GFP expression, and CAR expression were performed on 10,000 or 20,000 single cell events in Jurkat or primary T-cells, respectively.
For detection of PDCD1 knock-out efficiency, approx. 250,000 Jurkat cells per sample were transferred onto 96-well V-bottom cell culture plates and assessed following a series of consecutive washing and staining steps. The first step included centrifuging the cells at 300 g for 5 minutes at 4° C. and discarding the supernatant. Afterwards, the cells were stained using 100 μL Cell Staining Buffer (Biolegend) with APC/Cyanine7 anti-human CD279 (PD-1) antibody (1:100; Biolegend) and incubated for 30 minutes at 4° C. in the dark. The cells were then centrifuged at 300 g for 5 minutes at 4° C. and the supernatant discarded. The next step included two repeats of centrifugation at 300 g for 5 minutes at 4° C., supernatant removal, and cell washing in 150 μL ice-cold Cell Staining Buffer (Biolegend). In the final step, the cells were re-suspended in 100 μL Cell Staining Buffer for the flow cytometry measurements (excitation: red laser; emission: […]).
High-efficiency gNAs identified in our initial analysis were validated by assaying INDEL frequency for the top three or five gNAs for each of the selected immunologically relevant genes (FIG. 14). […] Alternating grey and white zones on the plot represent groups of three to five high-efficiency gNAs per locus. […] Using the CRISPresso2 software, the degree of open reading frame (ORF) disruption for each of the validated gNAs was estimated (FIG. 14). In addition, for four high-efficiency gNAs targeting three different exons at the PDCD1 locus, surface expression of the PDCD1 protein was measured by flow cytometry 4, 7, and 11 days post-transfection (data not shown). […] Average fraction of INDELs leading to frameshifts (dashed line) is approx. 66%. Alternating grey and white zones on the plot represent groups of three to five high-efficiency gNAs per locus.

TIM3 = experiment: gNA screen INDEL/frameshift frequency, TIM3; details: Jurkat cells; CRISPResso2 ORF disruption analysis
Experimental: as §1, §2, §3

[3] = measured 4, 7 and 11 days post-transfection, day of value not stated

With MAD7: type V-A Cas nuclease MAD7 the “editing by PAM motif” value [1] was “demonstrated editing with all eight combinations of YTTN PAM” and the “INDEL frequency of MAD7 at predicted off-target sites” value ([2]; all assayed off-target sites, Pairwise T-test, P≥0.05) was “No significant INDEL frequency”.
With “crPDCD1 3: high-efficiency gNA targeting the PDCD1 locus (guide CAGUGGCGAGAGAAGACCCCG; listed as RNA, further chemistry not given here)” the “surface expression of the PDCD1 protein” value (PDCD1 protein; [3]) was 35%.
In the case of “crTIM3_3: validated gNA targeting TIM3 (guide UAAGUAGUAGCAGCAGCAGCA; listed as RNA, further chemistry not given here)”, the “frameshifts frequency (fraction of frameshift to INDEL)” value (TIM3) is reported as 44%.
For “crPDCD1 4: high-efficiency gNA targeting the PDCD1 locus (guide CUAGCGGAAUGGGCACCUCAU; listed as RNA, further chemistry not given here)”, the “surface expression of the PDCD1 protein” value (PDCD1 protein; [3]) was 85%.
For “crTIM3_1: validated gNA targeting TIM3 (guide CUUGUAAGUAGUAGCAGCAGC; listed as RNA, further chemistry not given here)”, the “frameshifts frequency (fraction of frameshift to INDEL)” value (TIM3) was 23%.
“crPDCD1_5: high-efficiency gNA targeting the PDCD1 locus (guide GUGCUAAACUGGUACCGCAUG; listed as RNA, further chemistry not given here)” was tested, and the “surface expression of the PDCD1 protein” value (PDCD1 protein; [3]) was 85%.
With “crPDCD1_2: gNA targeting the PDCD1 gene at the extracellular domain of the protein (guide UCUGCAGGGACAAUAGGAGCC; listed as RNA, further chemistry not given here)” the “surface expression of the PDCD1 protein” value (PDCD1 protein; 4 days post-transfection) was 10%, the “surface expression of the PDCD1 protein” value (PDCD1 protein; day 11 post-transfection) was “remained at this level” and the “off-target activity (INDEL formation) at predicted off-target sites” value ([2]; 25 predicted sites, up to four mismatches, crPDCD1_2_13 and crPDCD1_2_15 sites, insignificant vs MOCK (P≥0.05)) was “low-level off-target activity”.
